Results as given in the kinase profiling compilation of Christmann-Franck et al. (2016).

What was measured:
Experiment in all cases: KINOMEscan competition binding
Conditions in all cases: compound 10.0 µM
AKT1 (human) = AKT1 (human) (UniProt P31749)
CAMK1G (human) = CAMK1G (human) (UniProt Q96NX5)
CSF1R (human) = CSF1R (human) (UniProt P07333)
DDR2 (human) = DDR2 (human) (UniProt Q16832)
[1] = tested on: EGFR (human), P00533 [747-751 del / S ins]
[2] = tested on: EGFR (human), P00533 [752-759 del]
EPHA3 (human) = EPHA3 (human) (UniProt P29320)
EPHB3 (human) = EPHB3 (human) (UniProt P54753)
EPHB6 (human) = EPHB6 (human) (UniProt O15197)
FLT1 (human) = FLT1 (human) (UniProt P17948)
[3] = tested on: FLT3 (human), P36888 [D835H]
IKBKE (human) = IKBKE (human) (UniProt Q14164)
ITK (human) = ITK (human) (UniProt Q08881)
[4] = molecular target: JAK1 JH2 pseudokinase (human) (UniProt P23458)
[5] = molecular target: JAK2 JH1 catalytic (human) (UniProt O60674)
[6] = molecular target: JAK3 JH1 catalytic (human) (UniProt P52333)
LIMK2 (human) = LIMK2 (human) (UniProt P53671)
LIMK2 (human), sequence (P53671 whole entry, looked up): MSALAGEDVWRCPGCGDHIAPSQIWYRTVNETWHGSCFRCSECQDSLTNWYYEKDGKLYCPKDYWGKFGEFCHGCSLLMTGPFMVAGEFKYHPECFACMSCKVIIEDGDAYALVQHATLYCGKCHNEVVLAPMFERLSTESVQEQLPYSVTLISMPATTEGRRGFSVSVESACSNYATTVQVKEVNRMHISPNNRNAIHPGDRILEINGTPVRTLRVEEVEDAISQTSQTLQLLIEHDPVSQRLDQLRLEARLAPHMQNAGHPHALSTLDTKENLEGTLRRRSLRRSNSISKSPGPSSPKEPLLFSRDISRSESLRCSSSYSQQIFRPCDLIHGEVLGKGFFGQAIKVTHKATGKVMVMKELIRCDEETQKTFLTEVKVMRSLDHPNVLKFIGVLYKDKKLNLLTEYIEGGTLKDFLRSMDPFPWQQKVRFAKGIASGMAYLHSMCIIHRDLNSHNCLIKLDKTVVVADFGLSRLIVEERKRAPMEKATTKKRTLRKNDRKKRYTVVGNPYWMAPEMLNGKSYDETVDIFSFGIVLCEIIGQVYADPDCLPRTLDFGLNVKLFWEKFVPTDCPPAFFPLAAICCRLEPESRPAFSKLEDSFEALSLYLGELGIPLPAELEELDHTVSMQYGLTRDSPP

MAP2K2 (human) = MAP2K2 (human) (UniProt P36507)
MAP4K3 (human) = MAP4K3 (human) (UniProt Q8IVH8)
MAP4K5 (human) = MAP4K5 (human) (UniProt Q9Y4K4)
MAP4K5 (human), sequence (Q9Y4K4 whole entry, looked up): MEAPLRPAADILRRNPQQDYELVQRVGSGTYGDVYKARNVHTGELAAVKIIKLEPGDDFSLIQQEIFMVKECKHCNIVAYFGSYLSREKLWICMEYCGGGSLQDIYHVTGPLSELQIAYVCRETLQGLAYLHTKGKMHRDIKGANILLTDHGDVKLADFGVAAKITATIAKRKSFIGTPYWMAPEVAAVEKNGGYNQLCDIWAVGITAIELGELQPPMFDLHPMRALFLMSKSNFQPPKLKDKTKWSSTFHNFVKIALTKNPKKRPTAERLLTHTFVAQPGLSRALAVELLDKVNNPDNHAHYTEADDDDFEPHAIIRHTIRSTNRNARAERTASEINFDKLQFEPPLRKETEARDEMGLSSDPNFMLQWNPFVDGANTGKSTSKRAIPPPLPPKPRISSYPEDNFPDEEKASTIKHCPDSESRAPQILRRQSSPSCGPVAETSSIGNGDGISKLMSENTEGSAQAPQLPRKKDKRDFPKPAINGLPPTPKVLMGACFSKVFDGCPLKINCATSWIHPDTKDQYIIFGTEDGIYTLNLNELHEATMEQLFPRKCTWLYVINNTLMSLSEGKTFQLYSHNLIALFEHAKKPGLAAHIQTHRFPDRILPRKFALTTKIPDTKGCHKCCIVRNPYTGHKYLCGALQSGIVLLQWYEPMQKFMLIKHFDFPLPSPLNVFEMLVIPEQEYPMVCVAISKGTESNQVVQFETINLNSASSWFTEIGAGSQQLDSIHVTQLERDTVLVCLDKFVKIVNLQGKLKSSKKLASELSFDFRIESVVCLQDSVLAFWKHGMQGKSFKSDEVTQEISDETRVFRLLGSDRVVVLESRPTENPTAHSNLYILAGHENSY

MAPK1 (human) = MAPK1 (human) (UniProt P28482)
MAPK1 (human), sequence (P28482 whole entry, looked up): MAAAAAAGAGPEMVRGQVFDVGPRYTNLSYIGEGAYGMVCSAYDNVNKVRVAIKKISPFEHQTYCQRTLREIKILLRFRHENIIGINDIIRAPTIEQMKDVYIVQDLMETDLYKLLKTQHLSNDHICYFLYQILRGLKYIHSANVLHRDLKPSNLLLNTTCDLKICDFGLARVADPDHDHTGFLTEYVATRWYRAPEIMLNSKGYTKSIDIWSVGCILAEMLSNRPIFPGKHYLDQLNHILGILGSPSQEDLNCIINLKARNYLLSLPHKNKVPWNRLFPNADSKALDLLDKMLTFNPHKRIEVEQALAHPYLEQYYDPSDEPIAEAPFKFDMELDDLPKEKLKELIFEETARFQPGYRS

MARK3 (human) = MARK3 (human) (UniProt P27448)
MAST1 (human) = MAST1 (human) (UniProt Q9Y2H9)
MKNK2 (human) = MKNK2 (human) (UniProt Q9HBH9)
MLTK (human) = MLTK (human) (UniProt Q9NYL2)
MYLK2 (human) = MYLK2 (human) (UniProt Q9H1R3)
PIM3 (human) = PIM3 (human) (UniProt Q86V86)
PIP5K1C (human) = PIP5K1C (human) (UniProt O60331)
PRKAA2 (human) = PRKAA2 (human) (UniProt P54646)
PRKAA2 (human), sequence (P54646 whole entry, looked up): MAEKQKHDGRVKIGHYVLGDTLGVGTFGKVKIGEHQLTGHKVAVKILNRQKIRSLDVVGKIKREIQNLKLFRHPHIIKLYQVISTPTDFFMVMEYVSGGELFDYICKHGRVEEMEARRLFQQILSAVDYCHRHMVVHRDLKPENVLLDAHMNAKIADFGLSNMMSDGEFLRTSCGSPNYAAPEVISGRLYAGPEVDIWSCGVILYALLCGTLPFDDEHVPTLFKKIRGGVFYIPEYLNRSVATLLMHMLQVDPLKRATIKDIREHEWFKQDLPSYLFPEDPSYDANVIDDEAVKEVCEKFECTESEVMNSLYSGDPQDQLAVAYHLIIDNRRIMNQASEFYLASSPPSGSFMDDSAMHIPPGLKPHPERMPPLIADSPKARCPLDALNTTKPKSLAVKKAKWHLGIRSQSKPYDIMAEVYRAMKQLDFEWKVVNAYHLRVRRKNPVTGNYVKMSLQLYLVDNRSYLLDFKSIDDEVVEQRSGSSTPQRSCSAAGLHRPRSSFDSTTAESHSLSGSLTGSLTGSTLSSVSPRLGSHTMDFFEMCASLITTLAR

PRKACB (human) = PRKACB (human) (UniProt P22694)
PRKD1 (human) = PRKD1 (human) (UniProt Q15139)
RPS6KA4 KD1 (human) = RPS6KA4 KD1 (human) (UniProt O75676)
SRC (human) = SRC (human) (UniProt P12931)
SRC (human), sequence (P12931 whole entry, looked up): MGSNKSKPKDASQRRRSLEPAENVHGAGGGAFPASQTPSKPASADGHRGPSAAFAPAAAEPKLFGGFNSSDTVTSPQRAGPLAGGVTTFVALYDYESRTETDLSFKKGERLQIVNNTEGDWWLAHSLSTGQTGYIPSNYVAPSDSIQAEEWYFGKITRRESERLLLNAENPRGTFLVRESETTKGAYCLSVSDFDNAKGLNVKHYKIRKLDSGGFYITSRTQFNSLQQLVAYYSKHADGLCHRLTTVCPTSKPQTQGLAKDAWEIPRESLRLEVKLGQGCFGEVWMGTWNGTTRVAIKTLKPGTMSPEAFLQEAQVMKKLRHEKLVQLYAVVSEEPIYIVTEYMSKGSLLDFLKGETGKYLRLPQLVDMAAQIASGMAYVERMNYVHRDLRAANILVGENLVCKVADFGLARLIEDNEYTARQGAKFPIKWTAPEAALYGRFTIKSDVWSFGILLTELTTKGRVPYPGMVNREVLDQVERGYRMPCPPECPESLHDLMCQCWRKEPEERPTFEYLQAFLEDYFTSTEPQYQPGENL

STK10 (human) = STK10 (human) (UniProt O94804)
TAOK1 (human) = TAOK1 (human) (UniProt Q7L7X3)
TAOK3 (human) = TAOK3 (human) (UniProt Q9H2K8)
TAOK3 (human), sequence (Q9H2K8 whole entry, looked up): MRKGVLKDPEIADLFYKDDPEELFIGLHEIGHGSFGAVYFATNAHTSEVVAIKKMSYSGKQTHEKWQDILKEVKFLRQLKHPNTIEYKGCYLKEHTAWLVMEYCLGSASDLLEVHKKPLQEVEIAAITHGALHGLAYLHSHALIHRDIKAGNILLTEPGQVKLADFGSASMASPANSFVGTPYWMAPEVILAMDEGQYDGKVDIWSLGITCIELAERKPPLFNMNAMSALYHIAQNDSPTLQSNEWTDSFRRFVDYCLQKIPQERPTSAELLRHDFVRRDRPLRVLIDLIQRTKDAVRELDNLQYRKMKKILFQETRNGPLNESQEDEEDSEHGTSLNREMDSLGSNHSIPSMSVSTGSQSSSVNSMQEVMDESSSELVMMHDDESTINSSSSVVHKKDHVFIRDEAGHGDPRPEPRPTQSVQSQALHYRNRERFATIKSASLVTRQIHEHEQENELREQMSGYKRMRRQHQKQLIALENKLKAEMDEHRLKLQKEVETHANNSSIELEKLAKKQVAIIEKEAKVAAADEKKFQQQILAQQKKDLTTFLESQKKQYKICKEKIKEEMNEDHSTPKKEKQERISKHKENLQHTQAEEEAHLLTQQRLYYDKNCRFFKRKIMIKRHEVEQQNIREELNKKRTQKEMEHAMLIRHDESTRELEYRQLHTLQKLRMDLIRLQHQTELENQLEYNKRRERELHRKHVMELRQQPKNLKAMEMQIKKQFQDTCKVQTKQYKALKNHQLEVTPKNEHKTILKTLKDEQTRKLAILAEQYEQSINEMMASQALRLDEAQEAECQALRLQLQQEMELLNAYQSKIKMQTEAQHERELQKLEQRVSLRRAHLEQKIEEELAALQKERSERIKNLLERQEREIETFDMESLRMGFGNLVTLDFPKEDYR

TGFBR1 (human) = TGFBR1 (human) (UniProt P36897)
TRPM6 (human) = TRPM6 (human) (UniProt Q9BX84)
TXK (human) = TXK (human) (UniProt P42681)
TXK (human), sequence (P42681 whole entry, looked up): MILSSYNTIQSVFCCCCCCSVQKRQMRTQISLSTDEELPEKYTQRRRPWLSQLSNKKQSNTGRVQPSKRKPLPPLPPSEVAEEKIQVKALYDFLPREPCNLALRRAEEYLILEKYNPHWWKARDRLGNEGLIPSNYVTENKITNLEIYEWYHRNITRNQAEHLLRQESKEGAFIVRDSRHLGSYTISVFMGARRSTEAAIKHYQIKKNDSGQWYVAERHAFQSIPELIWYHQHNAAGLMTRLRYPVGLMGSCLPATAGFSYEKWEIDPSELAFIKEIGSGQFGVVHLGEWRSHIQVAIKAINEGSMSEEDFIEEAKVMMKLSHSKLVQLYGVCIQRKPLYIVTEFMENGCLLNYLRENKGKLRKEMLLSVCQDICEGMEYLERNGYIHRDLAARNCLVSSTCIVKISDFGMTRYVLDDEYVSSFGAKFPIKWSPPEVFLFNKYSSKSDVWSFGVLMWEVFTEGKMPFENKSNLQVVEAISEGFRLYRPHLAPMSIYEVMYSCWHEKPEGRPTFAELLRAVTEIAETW

WEE2 (human) = WEE2 (human) (UniProt P0C1S8)

Structure (SMILES)	kinase still bound, per cent of control (AKT1 (human)) [%]	kinase still bound, per cent of control (CAMK1G (human)) [%]	kinase still bound, per cent of control (CSF1R (human)) [%]	kinase still bound, per cent of control (DDR2 (human)) [%]	kinase still bound, per cent of control [1] [%]	kinase still bound, per cent of control [2] [%]	kinase still bound, per cent of control (EPHA3 (human)) [%]	kinase still bound, per cent of control (EPHB3 (human)) [%]	kinase still bound, per cent of control (EPHB6 (human)) [%]	kinase still bound, per cent of control (FLT1 (human)) [%]	kinase still bound, per cent of control [3] [%]	kinase still bound, per cent of control (IKBKE (human)) [%]	kinase still bound, per cent of control (ITK (human)) [%]	kinase still bound, per cent of control [4] [%]	kinase still bound, per cent of control [5] [%]	kinase still bound, per cent of control [6] [%]	kinase still bound, per cent of control (LIMK2 (human)) [%]	kinase still bound, per cent of control (MAP2K2 (human)) [%]	kinase still bound, per cent of control (MAP4K3 (human)) [%]	kinase still bound, per cent of control (MAP4K5 (human)) [%]	also measured
C=CC(=O)Nc1cc(-n2c(=O)ccc3cnc4ccc(-c5cn[nH]c5)cc4c32)ccc1C	89	79	90	75	63	23	100	100	54	100	14	100	29	34	16	0	100	83	73	93	kinase still bound, per cent of control (MAPK1 (human)): 100%; kinase still bound, per cent of control (MARK3 (human)): 100%; kinase still bound, per cent of control (MAST1 (human)): 85%; kinase still bound, per cent of control (MKNK2 (human)): 0.15%; kinase still bound, per cent of control (MLTK (human)): 6.9%; kinase still bound, per cent of control (MYLK2 (human)): 89%; kinase still bound, per cent of control (PIM3 (human)): 42%; kinase still bound, per cent of control (PIP5K1C (human)): 42%; kinase still bound, per cent of control (PRKAA2 (human)): 78%; kinase still bound, per cent of control (PRKACB (human)): 100%; kinase still bound, per cent of control (PRKD1 (human)): 100%; kinase still bound, per cent of control (RPS6KA4 KD1 (human)): 100%; kinase still bound, per cent of control (SRC (human)): 100%; kinase still bound, per cent of control (STK10 (human)): 94%; kinase still bound, per cent of control (TAOK1 (human)): 22%; kinase still bound, per cent of control (TAOK3 (human)): 47%; kinase still bound, per cent of control (TGFBR1 (human)): 83%; kinase still bound, per cent of control (TRPM6 (human)): 71%; kinase still bound, per cent of control (TXK (human)): 7%; kinase still bound, per cent of control (WEE2 (human)): 95%
COc1cc2ncnc(-n3nc(-c4ccccn4)nc3N)c2cc1OC	100	34	52	22	77	58	11	56	2.2	48	3.2	9.6	100	0.4	26	33	20	74	53	45	kinase still bound, per cent of control (MAPK1 (human)): 56%; kinase still bound, per cent of control (MARK3 (human)): 100%; kinase still bound, per cent of control (MAST1 (human)): 73%; kinase still bound, per cent of control (MKNK2 (human)): 8.4%; kinase still bound, per cent of control (MLTK (human)): 4.5%; kinase still bound, per cent of control (MYLK2 (human)): 61%; kinase still bound, per cent of control (PIM3 (human)): 7.6%; kinase still bound, per cent of control (PIP5K1C (human)): 5%; kinase still bound, per cent of control (PRKAA2 (human)): 27%; kinase still bound, per cent of control (PRKACB (human)): 100%; kinase still bound, per cent of control (PRKD1 (human)): 88%; kinase still bound, per cent of control (RPS6KA4 KD1 (human)): 9.9%; kinase still bound, per cent of control (SRC (human)): 6.7%; kinase still bound, per cent of control (STK10 (human)): 12%; kinase still bound, per cent of control (TAOK1 (human)): 3.2%; kinase still bound, per cent of control (TAOK3 (human)): 39%; kinase still bound, per cent of control (TGFBR1 (human)): 14%; kinase still bound, per cent of control (TRPM6 (human)): 61%; kinase still bound, per cent of control (TXK (human)): 43%; kinase still bound, per cent of control (WEE2 (human)): 100%
